# Experimental data taken from publication PMC11576293, “New series of 4,6-diaryl pyrimidines: facile synthesis and antiproliferative activity as dual EGFR/VEGFR-2 inhibitors” (Frontiers in Chemistry, 2024).
# Values joined by “and” are separate entries in the source; they are usually repeats but may differ in a detail not shown here. Identical values can stand only once.
# Experiments:
# [1] = Cell viability assay (MTT) on normal cells; type: cell-based; settings: human, MCF-10A normal mammary gland epithelial cells, 4 days incubation
# Procedure: (§1) This experiment examines the impact of the newly developed compounds 9–29 on normal cell lines to assess their safety level. The vitality of the investigated compounds was assessed using the MCF-10 A cell line, a normal human mammary gland epithelial cell line. Following 4 days of incubation on MCF-10 A cells with each examined compound at a concentration of 50 μM, the vitality of the cells was assessed using the MTT test ([Mahmoud et al., 2022]; [Mekheimer et al., 2022]).
# as §1, with “The viability” for “The vitality”, “of 9–29” for “of the investigated compounds”, “2022]). Refer to Supplementary Material A1 for more details. […]” for “2022]).”
# 4.2. Biological evaluation
# 4.2.1. Cytotoxic activity using MTT Assay and evaluation of IC50
# MTT assay was carried out to study the effect of compounds on mammary epithelial cells (MCF-10A). The medium in which cells were propagated contained Dulbecco's modified Eagle's medium (DMEM)/ Ham's F-12 medium (1:1) supplemented with epidermal growth factor (20 ng/mL), hydrocortisone (500 ng/mL), insulin (10 μg/mL), 2 mM glutamine and 10% foetal calf serum.
# After every 2-3 days, the cells were passaged using trypsin ethylenediamine tetra acetic acid (EDTA). The cells were seeded at a density of 10^4 cells mL-1 in flat-bottomed culture plates containing 96 wells each. After 24 h, medium was removed from the plates and the compounds in (in 0.1% DMSO) were added (in 200 μL medium to yield a final concentration of 0.1% v/v) to the wells of plates. A single compound was designated with four wells followed by incubation of plates for 96h at 37°C. After incubation, medium was removed completely from the plates followed by addition of MTT (0.4 mg/mL in medium) to each well and subsequent incubation of plates for 3h. MTT (along with the medium) was removed and DMSO (150μL) was added to each well of the culture plates, followed by vertexing and subsequent measurement of absorbance (at 540 nm) using microplate reader. The data are shown as percentage inhibition of proliferation in comparison with controls containing 0.1% DMSO. […]
# [2] = target: T1, EGFR (Homo sapiens, UniProt P00533); assay: EGFR-TK inhibitory assay; type: biochemical; settings: read-out: EGFR inhibition IC50 ± SEM
# T1 construct: amino acids 645–1186; His6 (N); made in house; host or cells: Sf-9 insect cells (baculovirus; pBlueBacHis2B / pFASTBacHTc)
# T1 sequence (P00533 669-1210): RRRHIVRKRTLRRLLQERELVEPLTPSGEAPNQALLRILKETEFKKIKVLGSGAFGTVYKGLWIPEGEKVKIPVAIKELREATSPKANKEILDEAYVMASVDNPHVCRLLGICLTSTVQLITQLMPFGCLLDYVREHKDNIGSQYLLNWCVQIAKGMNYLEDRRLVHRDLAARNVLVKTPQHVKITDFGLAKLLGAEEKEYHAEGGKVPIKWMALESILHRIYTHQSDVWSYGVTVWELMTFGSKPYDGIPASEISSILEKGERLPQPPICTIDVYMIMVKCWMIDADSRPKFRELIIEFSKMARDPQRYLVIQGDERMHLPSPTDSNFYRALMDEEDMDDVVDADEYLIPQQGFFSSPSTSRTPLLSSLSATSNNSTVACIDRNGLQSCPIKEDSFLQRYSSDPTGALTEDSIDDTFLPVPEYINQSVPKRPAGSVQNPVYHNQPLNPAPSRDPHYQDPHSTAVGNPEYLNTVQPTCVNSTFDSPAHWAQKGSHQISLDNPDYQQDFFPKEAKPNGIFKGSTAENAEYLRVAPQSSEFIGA
# [3] = target: VEGFR-2 (Homo sapiens, UniProt P35968); assay: VEGFR-2 inhibitory assay
# VEGFR-2, sequence (P35968 20-1356): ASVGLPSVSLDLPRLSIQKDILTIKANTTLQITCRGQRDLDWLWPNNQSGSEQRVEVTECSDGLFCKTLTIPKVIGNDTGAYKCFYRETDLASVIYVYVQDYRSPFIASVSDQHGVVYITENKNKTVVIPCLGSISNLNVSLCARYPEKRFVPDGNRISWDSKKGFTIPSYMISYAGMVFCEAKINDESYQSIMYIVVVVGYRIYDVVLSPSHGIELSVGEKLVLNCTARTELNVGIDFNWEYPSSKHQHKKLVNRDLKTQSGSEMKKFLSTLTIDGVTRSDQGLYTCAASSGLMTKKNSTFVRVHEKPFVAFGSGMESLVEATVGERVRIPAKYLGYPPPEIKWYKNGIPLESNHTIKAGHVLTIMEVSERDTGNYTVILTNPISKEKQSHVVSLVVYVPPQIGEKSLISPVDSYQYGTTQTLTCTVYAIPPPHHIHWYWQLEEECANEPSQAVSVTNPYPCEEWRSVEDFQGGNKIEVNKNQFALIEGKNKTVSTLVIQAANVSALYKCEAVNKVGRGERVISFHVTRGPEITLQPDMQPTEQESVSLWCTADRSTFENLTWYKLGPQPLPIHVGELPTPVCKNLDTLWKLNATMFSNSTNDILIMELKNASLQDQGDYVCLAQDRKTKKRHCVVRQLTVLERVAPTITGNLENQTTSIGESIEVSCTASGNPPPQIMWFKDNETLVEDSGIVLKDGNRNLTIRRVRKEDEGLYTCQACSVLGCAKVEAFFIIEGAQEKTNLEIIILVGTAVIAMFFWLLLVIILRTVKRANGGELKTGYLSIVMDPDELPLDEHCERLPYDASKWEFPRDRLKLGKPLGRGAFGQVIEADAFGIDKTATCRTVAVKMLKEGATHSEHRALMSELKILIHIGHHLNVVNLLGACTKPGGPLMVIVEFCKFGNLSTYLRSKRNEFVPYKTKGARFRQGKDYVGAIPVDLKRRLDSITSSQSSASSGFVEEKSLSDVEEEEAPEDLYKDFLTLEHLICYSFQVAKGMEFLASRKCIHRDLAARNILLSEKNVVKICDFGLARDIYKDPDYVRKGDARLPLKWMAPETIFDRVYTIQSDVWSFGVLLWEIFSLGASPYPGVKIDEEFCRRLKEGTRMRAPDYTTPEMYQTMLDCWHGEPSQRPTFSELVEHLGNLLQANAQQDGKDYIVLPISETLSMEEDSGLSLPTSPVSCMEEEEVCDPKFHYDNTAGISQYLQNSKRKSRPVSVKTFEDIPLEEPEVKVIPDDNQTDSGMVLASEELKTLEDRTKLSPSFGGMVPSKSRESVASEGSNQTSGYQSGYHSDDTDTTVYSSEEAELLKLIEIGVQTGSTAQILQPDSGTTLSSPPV
# [4] = test system: A-549 cancer cells; assay: Wound healing assay (migration, wound closure); type: cell-based, human; settings: A-549 cells
# Procedure: Wound healing assay is a simple, reproducible, and non-expensive method to study cancer cell migration in vitro ([Rodriguez et al., 2005]). We investigated the wound-healing activities of compounds 22 and 29 in A-549 cancer cells. […] Furthermore, the wound closure percentage achieved 100% after 72 h of treatment with a compound 22, whereas it reached only 80% with a compound 29.
# [5] = Experimental lipophilicity by RP-TLC; type: physicochemical; settings: for Experimental lipophilicity RMo: MeOH/water mobile phase; for Experimental lipophilicity Co: concentration of MeOH at RM = 0, in % (unit assumed)
# Excerpt: The RP-TLC method was used to measure the lipophilicity parameters (RMo, b, and Co) described in the experimental section. The mobile phase consisted of different proportions of water and organic modifier (MeOH). RF and RM values were obtained for each ratio of organic modifier/water system (Supplementary Table S3), and a linear regression analysis was achieved to obtain the lipophilicity chromatographic descriptors (RMo, b, and Co, see Table 6). Relative lipophilicity (RMo) describes the partitioning of the solute between pure water and nonpolar stationary phase. In contrast, the second lipophilicity parameter (Co) represents the concentration of organic modifier in the mobile phase in which the solute is equally distributed between two phases (i.e., RM = 0, and Rf = 0.5). Also, Co is known to be widely used in QSAR analysis as it embraces both the specific hydrophobic surface area of the solute and RMo. […] Finally, the slope of the regression line (b) was used as a descriptor of the specific hydrophobic surface area of the compound. In a series of structurally related compounds, b is linearly correlated with RMo, resulting in a linear relationship that is the basic feature of the chromatographic determination of lipophilicity. […] Moreover, substituents affected tested compounds’ measured lipophilicity parameter (RMo) values. Higher RMo values were found with lipophilic derivatives containing the benzyl group (14, 22, and 28), while lower RMo values were found with derivatives containing alkyl or allyl groups (19, 26, and 27). An interesting contradiction was found with experimental lipophilicity value of 28 and its congener 14, where compound 28 was found more lipophilic than its congener 14 even though it contains two methoxy groups and according to ChemDraw® and MolSoft® programs, derivative 14 should be more lipophilic while the MOE® program expects values matching our findings. […] Also, S-allyl derivatives were nearly equipotent to S-alkyl congeners as antiproliferative agents but quite different in terms of lipophilicity.
# [6] = test system: MCF-7 Breast Adenocarcinoma cell line; assay: Wound healing assay (supplement, Table S3); type: cell-based; settings: for Migration rate: Rm=Wi−Wf / t
# Procedure: 4.3. Wound Healing Assay of MCF-7 Breast Adenocarcinoma
# MCF-7 Breast Adenocarcinoma cell line was obtained from Nawah Scientific Inc., (Mokatam, Cairo, Egypt). Cells were maintained in DMEM media supplemented with […] of streptomycin, 100 units/mL of penicillin and 10% of heat-inactivated fetal bovine serum in humidified, 5% (v/v) CO2 atmosphere at 37 °C.
# 4.3.2. Wound healing assay
# Cells were plated at a density of 2x10^5/well onto a coated 12-well plate for scratch wound assay and cultured overnight in 5% FBS-DMEM at 37 °C and 5% CO2. On the next day, horizontal scratches were introduced into the confluent monolayer; the plate was washed thoroughly with PBS, control wells were replenished with fresh medium while drug wells were treated with fresh media containing drug 26 and 27. Images were taken using an inverted microscope at the indicated time intervals. The plate was incubated at 37 °C and 5% CO2 in-between time points. The acquired […]
# 4.4. Wound Healing Assay Calculations
# Wound width can be calculated as the average distance between the edges of the scratches; the wound width decreases as cell migration is induced. The results of compounds 26 and 27 were […]
# Migration rate is calculated by dividing the time spent in migration according to the following
Compound,"viability at 4 days, 50 µM [1]",melting point,also measured
"COc1ccc(-c2cc(-c3ccc(Cl)cc3)nc(SC)n2)cc1 [Compound 9, 4-(4-Chlorophenyl)-6-(4-methoxyphenyl)-2-(methylthio)pyrimidine]",91%,220 to 221 °C,–
"CCSc1nc(-c2ccc(Cl)cc2)cc(-c2ccc(OC)cc2)n1 [Compound 10, 4-(4-Chlorophenyl)-2-(ethylthio)-6-(4-methoxyphenyl)pyrimidine]",90%,230 to 231 °C,–
"CCCSc1nc(-c2ccc(Cl)cc2)cc(-c2ccc(OC)cc2)n1 [Compound 11, 4-(4-Chlorophenyl)-6-(4-methoxyphenyl)-2-(propylthio)pyrimidine]",89%,228 to 230 °C,–
"COc1ccc(-c2cc(-c3ccc(Cl)cc3)nc(SC(C)C)n2)cc1 [Compound 12, 4-(4-Chlorophenyl)-2-(isopropylthio)-6-(4-methoxyphenyl)pyrimidine]",89%,198 to 201 °C,–
"C=CCSc1nc(-c2ccc(Cl)cc2)cc(-c2ccc(OC)cc2)n1 [Compound 13, 2-(Allylthio)-4-(4-chlorophenyl)-6-(4-methoxyphenyl)pyrimidine]",90%,245 to 247 °C,–
"COc1ccc(CSc2nc(-c3ccc(Cl)cc3)cc(-c3ccc(OC)cc3)n2)cc1 [Compound 15, 2-(4-Methoxybenzylthio)-4-(4-chlorophenyl)-6-(4-methoxyphenyl)pyrimidine]",91%,278 to 280 °C,–
"COc1ccc(-c2cc(-c3cccc(OC)c3)nc(SC)n2)cc1 [Compound 16, 6-(3-Methoxyphenyl)-4-(4-methoxyphenyl)-2-(methylthio)pyrimidine]",92%,213 to 215 °C,–
"CCSc1nc(-c2ccc(OC)cc2)cc(-c2cccc(OC)c2)n1 [Compound 17, 2-(Ethylthio)-6-(3-methoxyphenyl)-4-(4-methoxyphenyl)pyrimidine]",90%,221 to 222 °C,IC50 [2]: 87 ± 6 nM; IC50 [3]: 1.85 ± 0.01 nM
"CCCSc1nc(-c2ccc(OC)cc2)cc(-c2cccc(OC)c2)n1 [Compound 18, 6-(3-Methoxyphenyl)-4-(4-methoxyphenyl)-2-(propylthio)pyrimidine]",87%,218 to 220 °C,–
"C=CCSc1nc(-c2ccc(OC)cc2)cc(-c2cccc(OC)c2)n1 [Compound 20, 2-(Allylthio)-6-(3-methoxyphenyl)-4-(4-methoxyphenyl)pyrimidine]",90%,258 to 260 °C,–
"COc1ccc(CSc2nc(-c3ccc(OC)cc3)cc(-c3cccc(OC)c3)n2)cc1 [Compound 22, 2-(4-Methoxybenzylthio)-6-(3-methoxyphenyl)-4-(4-methoxyphenyl)pyrimidine]",89%,–,Wound closure % 24 h ([4]; 24 h): 25%; Wound closure % 48 h ([4]; 48 h): 50%; Wound closure % 72 h ([4]; 72 h): 100%; Experimental lipophilicity RMo [5]: 6.449 ± 0.05873 and 6.24; Experimental lipophilicity Co [5]: 90.6598 and 87.7; IC50 [3]: 1.15 ± 0.01 nM
"COc1ccc(-c2cc(-c3ccc(Cl)cc3)nc(SC)n2)cc1OC [Compound 23, 4-(4-Chlorophenyl)-6-(3,4-dimethoxyphenyl)-2-(methylthio)pyrimidine]",90%,228 to 229 °C,–
"CCSc1nc(-c2ccc(Cl)cc2)cc(-c2ccc(OC)c(OC)c2)n1 [Compound 24, 4-(4-Chlorophenyl)-2-(ethylthio)-6-(3,4-dimethoxyphenyl)pyrimidine]",91%,229 to 231 °C,–
"CCCSc1nc(-c2ccc(Cl)cc2)cc(-c2ccc(OC)c(OC)c2)n1 [Compound 25, 4-(4-Chlorophenyl)-6-(3,4-dimethoxyphenyl)-2-(propylthio)pyrimidine]",91%,217 to 219 °C,IC50 [2]: 78 ± 5 nM; IC50 [3]: 2.95 ± 0.02 nM
"COc1ccc(-c2cc(-c3ccc(Cl)cc3)nc(SC(C)C)n2)cc1OC [Compound 26, 4-(4-Chlorophenyl)-2-(isopropylthio)-6-(3,4-dimethoxyphenyl)pyrimidine]",90%,233 to 253 °C,Experimental lipophilicity RMo [5]: 6.45; Experimental lipophilicity Co [5]: 86.518 and 90.64; Wound Width ±SD 0 h [6]: 1.01±0.02 mm; Wound Width ±SD 24 h [6]: 0.76±0.04 mm; Wound closure % 24 h [6]: 25%; Wound Width ±SD 48 h [6]: 0.51±0.03 mm; Wound closure % 48 h [6]: 49.7%; Wound Width ±SD 72 h [6]: 0 mm; Wound closure % 72 h [6]: 100%; Migration rate [6]: 0.013
"C=CCSc1nc(-c2ccc(Cl)cc2)cc(-c2ccc(OC)c(OC)c2)n1 [Compound 27, 2-(Allylthio)-4-(4-chlorophenyl)-6-(3,4-dimethoxyphenyl)pyrimidine]",89%,244 to 246 °C,Experimental lipophilicity RMo [5]: 5.79; Experimental lipophilicity Co [5]: 87.9561 and 86.52; Wound Width ±SD 0 h [6]: 1±0.02 mm; Wound Width ±SD 24 h [6]: 0.88±0.03 mm; Wound closure % 24 h [6]: 11.3%; Wound Width ±SD 48 h [6]: 0.66±0.03 mm; Wound closure % 48 h [6]: 34%; Wound Width ±SD 72 h [6]: 0.2±0.18 mm; Wound closure % 72 h [6]: 80%; Migration rate [6]: 0.011
"COc1ccc(-c2cc(-c3ccc(Cl)cc3)nc(SCc3ccccc3)n2)cc1OC [Compound 28, 2-(Benzylthio)-4-(4-chlorophenyl)-6-(3,4-dimethoxyphenyl)pyrimidine]",92%,239 to 241 °C,Experimental lipophilicity RMo [5]: 5.32; Experimental lipophilicity Co [5]: 91.4199 and 87.18
